Data from patent US11331271B2, “Buccal, sublingual and intranasal delivery of fospropofol” (The Johns Hopkins University, priority 2016, dated 2022).
Entries after “also recorded” stand apart in the source; their conditions may differ. Read-outs that look alike come from different tables or passages of the source.

Experiments:
[1] = Intranasal fospropofol in rats: plasma and brain levels; assay type: in vivo, rat
[2] = system: rat chronic constrictive injury model of neuropathic pain; experiment: Neuropathic pain studies in rats (thermal hyperalgesia, withdrawal latency); assay type: in vivo; details: for alleviation of thermal hyperalgesia: 45-60 min post-dose; for time course of analgesic effect: tested 1, 2 and 4 h after dosing
Protocol: This study was performed as previously described (Vornov, et al., 2013). In brief, male Sprague-Dawley rats (200-250 g) were anesthetized with halothane. The common sciatic nerve on one hind limb was exposed by separating the biceps femoris from the gluteus superficialis. The nerve was subsequently isolated from the surrounding tissue and four ligatures (4.0 chromic gut) were tied loosely around it with about 1-mm spacing. On the other hind limb of the rat, the nerve was similarly isolated but no ligatures were placed, (sham surgery). Thermal pain sensitivity was evaluated using a plantar test apparatus according to previous methods (Hargreaves, et al., 1988). In brief, this involved applying a constant infrared stimulus to the plantar surface of the hind paw using a Basile Plantar apparatus (Ugo Basile, Vaarese, Italy). Withdrawal latency was measured as the time taken for the rat to withdraw its paw from the heat source to the nearest 0.1 s. The “difference score” was calculated by subtracting the average latency of the non-ligated versus ligated side. Animals were habituated to the test chambers (clear plastic compartment maintained in a quiet room) for several hours over 3-4 days, prior to any measurement. Baseline hyperalgesia was recorded 10-12 days post-surgery after the habituation. On test day, each animal received either fospropofol (50, 75 or 100 mg/kg) or vehicle (distilled water) via oral gavage in a volume of 2 mL/kg in a randomized and blinded fashion. Withdrawal latency measurements were then recorded five times for both the operated and sham hind paws of each rat starting from 45 to 60 min post dose. The final latency measurement represents a mean of the last four out of a total of five responses, each being taken at least 5 min apart on the same paw. The difference in response latency for each rat for each leg was calculated and used to determine the mean latency difference response time for each group.

rats = experiment: Sedative studies in rats (0-4 sedation score); assay type: in vivo, rat
Protocol: The relative potency of fospropofol given via different administration routes was investigated in rats, using sedation as an end point. Intravenous fospropofol doses of 5-40 mg/kg were chosen based on previous studies (Schywalsky, et al., 2003). Based on expected lower oral bioavailability, doses of 100-400 mg/kg were chosen for the PO and ID studies. Following administration of fospropofol, two experimental observers blinded to the treatment, graded the behavior of the rats (n=2-3 per experimental group) every 5 min for a total of 120 min after administration. […] Scores were averaged across treatment groups per time point.

[3] = rat, oral propofol; cited from earlier work
Caco-2 cell monolayers = details: cited from earlier work
[4] = IV lipid emulsion, animals; cited from earlier work
[5] = IV lipid emulsion, humans; cited from earlier work

Compound: CC(C)c1cccc(C(C)C)c1OCOP(=O)(O)O [fospropofol]
- fospropofol in plasma after intranasal fospropofol [1]: appreciable plasma concentrations
- alleviation of thermal hyperalgesia ([2]; 75 mg/kg PO): active in alleviating thermal hyperalgesia; also recorded: effective in reducing hyperalgesia
- time course of analgesic effect ([2]; 75 mg/kg PO): losing activity by 2 h
- time course of analgesic effect ([2]; 75 mg/kg PO, listed as Fospropofol): effective only when tested at 1 h
- alleviation of thermal hyperalgesia ([2]; 100 mg/kg PO): active in alleviating thermal hyperalgesia; also recorded: effective in reducing hyperalgesia
- absolute latency of the ligated side vs vehicle ([2]; 1 hour after oral fospropofol): dose dependent increase
- withdrawal latency on sham (non-ligated) side vs vehicle ([2]; PO fospropofol): no change in latencies; also recorded: did not change
- dose inducing full sedation (average score 3.5 or higher) (rats; ID): 50 mg/kg
- onset of sedation after administration (rats; ID): ≤ 5 min
- dose inducing full sedation (average score 3.5 or higher) (rats; IV): 40 mg/kg
- onset of sedative effects (rats; IV 10-40 mg/kg): ≤ 1 min
- sedative effects abated after infusion (rats; IV 10-40 mg/kg): ≤ 30 min
- dose inducing full sedation (average score 3.5 or higher) (rats; PO): 300 to 400 mg/kg
- onset of sedated behavior after dosing (rats; PO): 5 to 10 min
- degree of sedation (rats; PO 100-200 mg/kg): mild to moderate sedation
- duration of sedation (rats; PO 100-200 mg/kg): 1 to 2 h
- duration of loss of consciousness (rats; PO 300 and 400 mg/kg): ≤ 1 h

Compound: CC(C)c1cccc(C(C)C)c1O [propofol, 2,6-diisopropylphenol]
- bioavailability of propofol [3]: 10%
- permeability (Caco-2 cell monolayers): highly permeable
- extraction by the liver [4]: 80%
- extraction by the liver [5]: 80%
